In brackets after ≈: the same amount, converted by molar mass. Several values for one entry are separate records, joined by “and”; a condition that tells them apart may be missing. Equal values may be shown once.
How the values were obtained:
M. tuberculosis NTB1 = format: cell-based, Mycobacterium tuberculosis
M. tuberculosis H37Rv = conditions: stated in the Introduction; ref Makarov et al, 2009; cited from earlier work

Row | Molecule | MIC99 (M. tuberculosis NTB1) | fold increased resistance conferred by the Cys387Ser mutation in DprE1 (M. tuberculosis NTB1) | MIC (M. tuberculosis H37Rv)
1 | moxifloxicin [MXF] | 0.03 µg/mL |  | 
2 | C[C@H]1COC2(CCN(c3nc(=O)c4cc(C(F)(F)F)cc([N+](=O)[O-])c4s3)CC2)O1 [BTZ043, 2-[(2S)-2-methyl-1,4-dioxa-8-azaspiro[4.5]dec-8-yl]-8-nitro-6-(trifluoromethyl)-4H-1,3-benzothia-zin-4-one] | 25 µg/mL (≈ 58 µM) | > 10 000 fold | 1 ng/ml and 2.3 nM
3 | O=c1nc(N2CCN(CC3CCCCC3)CC2)sc2c([N+](=O)[O-])cc(C(F)(F)F)cc12 [PBTZ169] | >100 µg/mL | > 10 000 fold | 
4 | CO[C@H]1/C=C/O[C@@]2(C)Oc3c(C)c(O)c4c(O)c(c(/C=N/N5CCN(C)CC5)c(O)c4c3C2=O)NC(=O)/C(C)=C\C=C\[C@H](C)[C@H](O)[C@@H](C)[C@@H](O)[C@@H](C)[C@H](OC(C)=O)[C@@H]1C [RIF, rifampicin] | 0.001 µg/mL (≈ 0.00122 µM) |  | 
